# Test results: ChEMBL document CHEMBL1201862, “PubChem BioAssay data set” (2004)
# Active and inactive are the calls of the source.
# Tests used:
# [1] = NIH-3T3 fibroblast cytotoxicity, dose response, cytotoxicity control, cell-based, fluorescence, Alamar Blue, secondary assay (AID 2327); format: functional;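 also: NIH-3T3 mouse fibroblasts cultured with fluconazole at 8 µg/mL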
# Insulin-degrading enzyme [2] = molecular target: T1, Insulin-degrading enzyme (Homo sapiens, UniProt P14735); test: cellular IDE activation of Abeta substrate cleavage – fluorescence polarization, HEK cells, dose response (AID 588439); format: functional, cell-based
# T1 sequence (P14735 whole entry): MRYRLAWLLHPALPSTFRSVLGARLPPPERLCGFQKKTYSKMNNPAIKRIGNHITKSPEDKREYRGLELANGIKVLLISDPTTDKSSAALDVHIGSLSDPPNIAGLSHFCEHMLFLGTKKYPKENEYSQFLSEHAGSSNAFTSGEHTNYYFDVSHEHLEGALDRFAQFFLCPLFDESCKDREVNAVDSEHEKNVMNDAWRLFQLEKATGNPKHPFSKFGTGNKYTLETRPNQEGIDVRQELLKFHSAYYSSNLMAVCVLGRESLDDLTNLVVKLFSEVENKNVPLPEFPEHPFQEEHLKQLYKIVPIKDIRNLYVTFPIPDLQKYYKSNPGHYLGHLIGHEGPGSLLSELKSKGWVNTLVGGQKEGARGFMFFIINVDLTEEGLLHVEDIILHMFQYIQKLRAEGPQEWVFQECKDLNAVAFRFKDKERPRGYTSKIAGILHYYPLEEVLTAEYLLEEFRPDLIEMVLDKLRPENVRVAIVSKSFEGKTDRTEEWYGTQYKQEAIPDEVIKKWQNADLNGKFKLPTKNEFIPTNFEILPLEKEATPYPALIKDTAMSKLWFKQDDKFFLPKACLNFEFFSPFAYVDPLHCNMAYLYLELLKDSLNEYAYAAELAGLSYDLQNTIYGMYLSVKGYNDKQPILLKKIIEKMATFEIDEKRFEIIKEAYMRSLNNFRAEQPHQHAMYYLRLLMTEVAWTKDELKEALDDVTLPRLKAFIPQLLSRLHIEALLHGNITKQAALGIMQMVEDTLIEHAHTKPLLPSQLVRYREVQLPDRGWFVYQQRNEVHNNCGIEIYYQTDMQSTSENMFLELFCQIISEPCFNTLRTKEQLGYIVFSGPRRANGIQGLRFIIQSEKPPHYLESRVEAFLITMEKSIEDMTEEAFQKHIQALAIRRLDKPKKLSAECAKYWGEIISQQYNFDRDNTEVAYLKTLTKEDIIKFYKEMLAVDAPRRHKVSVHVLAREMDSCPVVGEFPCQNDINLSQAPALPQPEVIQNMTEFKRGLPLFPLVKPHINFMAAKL
# [3] = molecular target: T2, Zinc finger protein mex-5 (Caenorhabditis elegans, UniProt Q9XUB2); test: potency of MEX-5 RNA-binding blockers – biochemical, C. elegans, fluorescence polarization, dose response (AID 1960)
# T2 sequence (Q9XUB2 whole entry): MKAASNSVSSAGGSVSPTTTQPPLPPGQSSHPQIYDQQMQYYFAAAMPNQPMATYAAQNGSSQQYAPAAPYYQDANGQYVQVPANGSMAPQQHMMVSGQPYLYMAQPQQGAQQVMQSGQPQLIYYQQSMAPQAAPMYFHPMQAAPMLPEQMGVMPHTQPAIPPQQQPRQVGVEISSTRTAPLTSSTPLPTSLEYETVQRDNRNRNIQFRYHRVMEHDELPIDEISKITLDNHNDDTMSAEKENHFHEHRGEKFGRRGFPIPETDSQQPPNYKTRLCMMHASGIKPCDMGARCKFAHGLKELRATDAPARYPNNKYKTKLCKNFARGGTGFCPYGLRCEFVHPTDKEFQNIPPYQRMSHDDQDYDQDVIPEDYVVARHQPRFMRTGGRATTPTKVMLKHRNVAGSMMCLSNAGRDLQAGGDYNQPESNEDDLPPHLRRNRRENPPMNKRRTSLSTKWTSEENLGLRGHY
# HEK293 [4] = test: membrane integrity loss in HEK cells – cell-based, fluorescence, cytotoxicity control for IDE activator project, dose response (AID 588440); format: functional; details: Homo sapiens;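 also: cytotoxicity by LDH release measuring loss of membrane integrity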
# [5] = molecular target: T3, RNA-binding protein pos-1 (Caenorhabditis elegans, UniProt G5EF15); test: disruptors of C. elegans POS-1 RNA interaction – biochemical, fluorescence polarization, dose response (AID 1964);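 also: purified POS-1 fused to maltose binding protein made in E. coli; potency of compounds blocking POS-1 binding to fluorescent RNA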
# T3 sequence (G5EF15 whole entry): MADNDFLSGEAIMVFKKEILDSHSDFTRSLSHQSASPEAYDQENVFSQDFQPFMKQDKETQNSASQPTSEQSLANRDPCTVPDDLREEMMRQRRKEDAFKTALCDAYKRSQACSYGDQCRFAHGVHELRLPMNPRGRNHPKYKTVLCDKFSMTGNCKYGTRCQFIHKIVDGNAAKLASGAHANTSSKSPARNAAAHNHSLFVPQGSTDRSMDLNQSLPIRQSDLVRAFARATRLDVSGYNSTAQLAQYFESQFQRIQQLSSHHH
# Insulin-degrading enzyme [6] = molecular target: T1, Insulin-degrading enzyme; test: recombinant IDE activation, cell-free – biochemical, fluorescence polarization, counter-screen for IDE activator project, dose response (AID 588681)
# [7] = fluconazole-exposed Candida albicans growth modulators – fluorescence, retest, confirmation (AID 2467); format: functional, cell-based
# HEK293 [8] = test: optical interference in Abeta FP readout, dose response, artefact control for IDE activator project, biochemical, fluorescence polarization (AID 588442); format: functional, cell-based; details: Homo sapiens
# Aurora kinase A = Aurora kinase A (Homo sapiens, UniProt O14965); format: functional;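 also: value from the Navigating the Kinome kinase panel profiling, panel entry STK6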
# [9] = molecular target: Vascular endothelial growth factor receptor 2 (Homo sapiens, UniProt P35968); format: functional
# Aurora kinase B = Aurora kinase B (Homo sapiens, UniProt Q96GD4); format: functional
# [10] = molecular target: Cyclin-dependent kinase 5/CDK5 activator 1 (Homo sapiens, UniProt Q00535); test: inhibitors of human CDK5 activity – biochemical, microfluidic mobility shift, dry powder, set 2, selectivity assay for GSK3beta inhibitor project, dose response (AID 623979); format: functional
# [11] = molecular target: Glycogen synthase kinase-3 beta (Homo sapiens, UniProt P49841); test: inhibition of human GSK3B activity – biochemical, microfluidics, dry powder samples, set 2, dose response (AID 623989); format: functional
# [12] = molecular target: T4, High affinity choline transporter 1 (Homo sapiens, UniProt Q9GZV3); test: human choline transporter potentiators, potency – cell-based, 10-point CRC, membrane potential dye, dose response (AID 602376); format: functional
# T4 sequence (Q9GZV3 whole entry): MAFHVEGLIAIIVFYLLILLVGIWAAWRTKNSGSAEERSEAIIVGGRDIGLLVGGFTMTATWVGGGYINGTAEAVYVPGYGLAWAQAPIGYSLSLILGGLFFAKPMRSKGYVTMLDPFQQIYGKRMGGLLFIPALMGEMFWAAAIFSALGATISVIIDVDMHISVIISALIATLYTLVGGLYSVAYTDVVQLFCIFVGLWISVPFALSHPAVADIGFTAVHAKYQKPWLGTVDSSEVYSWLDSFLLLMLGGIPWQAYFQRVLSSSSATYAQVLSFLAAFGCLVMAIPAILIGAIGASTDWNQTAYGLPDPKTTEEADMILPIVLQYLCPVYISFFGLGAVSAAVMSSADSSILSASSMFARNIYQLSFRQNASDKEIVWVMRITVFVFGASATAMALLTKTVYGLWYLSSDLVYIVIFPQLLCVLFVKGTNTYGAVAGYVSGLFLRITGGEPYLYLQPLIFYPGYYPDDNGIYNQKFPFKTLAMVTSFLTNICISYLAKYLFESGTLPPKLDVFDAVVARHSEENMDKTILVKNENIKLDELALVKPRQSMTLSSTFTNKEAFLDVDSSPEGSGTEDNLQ
# [13] = molecular target: Melanin-concentrating hormone receptor 1 (Homo sapiens, UniProt Q99705); test: Late-stage fluorescence-based counterscreen for antagonists of the G-protein coupled receptor 7 (GPR7): cell-based dose response assay to identify antagonists of the melanin-concentrating hormone receptor 1 (MCHR1) Set 5.; format: functional
# [14] = molecular target: Cyclin-dependent kinase 19 (Homo sapiens, UniProt Q9BWU1); test: Navigating the Kinome. Panel member name: CDC2L6; format: functional
# [15] = molecular target: ALK tyrosine kinase receptor (Homo sapiens, UniProt Q9UM73); format: functional;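 also: ALK tested as one member of a kinase panel screen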
# Sequence of ALK tyrosine kinase receptor (Q9UM73 whole entry): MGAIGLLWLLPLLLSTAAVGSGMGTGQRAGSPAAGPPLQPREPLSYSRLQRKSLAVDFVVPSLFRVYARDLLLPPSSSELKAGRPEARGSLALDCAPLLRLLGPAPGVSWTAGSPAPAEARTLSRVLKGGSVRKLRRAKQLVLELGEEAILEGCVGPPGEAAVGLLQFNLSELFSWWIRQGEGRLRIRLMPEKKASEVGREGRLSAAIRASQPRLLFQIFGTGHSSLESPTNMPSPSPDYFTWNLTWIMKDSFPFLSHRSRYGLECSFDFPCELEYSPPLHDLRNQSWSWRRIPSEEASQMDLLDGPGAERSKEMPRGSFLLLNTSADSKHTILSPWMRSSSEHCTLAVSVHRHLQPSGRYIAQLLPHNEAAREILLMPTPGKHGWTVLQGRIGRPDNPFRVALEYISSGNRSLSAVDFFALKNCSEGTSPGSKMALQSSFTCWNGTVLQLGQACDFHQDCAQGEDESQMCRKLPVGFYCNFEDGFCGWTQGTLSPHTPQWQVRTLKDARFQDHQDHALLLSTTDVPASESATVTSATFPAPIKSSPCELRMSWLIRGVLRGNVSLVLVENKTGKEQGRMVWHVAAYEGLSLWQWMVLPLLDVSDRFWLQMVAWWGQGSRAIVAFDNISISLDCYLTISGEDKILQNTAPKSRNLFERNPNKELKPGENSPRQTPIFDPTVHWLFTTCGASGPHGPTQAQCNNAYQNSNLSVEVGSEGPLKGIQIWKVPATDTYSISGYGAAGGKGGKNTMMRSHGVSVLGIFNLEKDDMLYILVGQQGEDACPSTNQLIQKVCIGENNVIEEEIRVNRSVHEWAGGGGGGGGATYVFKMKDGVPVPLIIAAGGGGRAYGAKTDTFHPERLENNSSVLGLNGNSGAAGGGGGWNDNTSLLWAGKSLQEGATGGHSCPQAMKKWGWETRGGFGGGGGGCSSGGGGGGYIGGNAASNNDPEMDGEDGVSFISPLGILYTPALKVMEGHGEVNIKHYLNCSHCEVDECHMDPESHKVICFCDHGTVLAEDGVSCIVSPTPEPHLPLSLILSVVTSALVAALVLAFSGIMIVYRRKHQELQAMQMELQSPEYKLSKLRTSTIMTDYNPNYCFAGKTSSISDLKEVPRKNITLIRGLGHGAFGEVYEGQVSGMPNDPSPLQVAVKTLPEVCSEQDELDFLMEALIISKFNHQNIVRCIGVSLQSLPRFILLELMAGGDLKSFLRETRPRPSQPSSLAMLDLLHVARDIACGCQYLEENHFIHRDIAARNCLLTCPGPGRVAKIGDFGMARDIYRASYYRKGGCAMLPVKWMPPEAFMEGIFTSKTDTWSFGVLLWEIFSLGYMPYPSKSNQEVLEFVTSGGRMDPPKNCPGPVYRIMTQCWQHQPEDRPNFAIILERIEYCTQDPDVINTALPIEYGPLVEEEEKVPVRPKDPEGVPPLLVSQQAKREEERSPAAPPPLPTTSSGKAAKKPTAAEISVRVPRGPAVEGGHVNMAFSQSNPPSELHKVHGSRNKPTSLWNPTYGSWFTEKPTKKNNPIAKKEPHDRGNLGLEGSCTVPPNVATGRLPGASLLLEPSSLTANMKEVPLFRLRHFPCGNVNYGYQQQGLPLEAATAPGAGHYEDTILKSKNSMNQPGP
# Sequence of Vascular endothelial growth factor receptor 2 (P35968 whole entry): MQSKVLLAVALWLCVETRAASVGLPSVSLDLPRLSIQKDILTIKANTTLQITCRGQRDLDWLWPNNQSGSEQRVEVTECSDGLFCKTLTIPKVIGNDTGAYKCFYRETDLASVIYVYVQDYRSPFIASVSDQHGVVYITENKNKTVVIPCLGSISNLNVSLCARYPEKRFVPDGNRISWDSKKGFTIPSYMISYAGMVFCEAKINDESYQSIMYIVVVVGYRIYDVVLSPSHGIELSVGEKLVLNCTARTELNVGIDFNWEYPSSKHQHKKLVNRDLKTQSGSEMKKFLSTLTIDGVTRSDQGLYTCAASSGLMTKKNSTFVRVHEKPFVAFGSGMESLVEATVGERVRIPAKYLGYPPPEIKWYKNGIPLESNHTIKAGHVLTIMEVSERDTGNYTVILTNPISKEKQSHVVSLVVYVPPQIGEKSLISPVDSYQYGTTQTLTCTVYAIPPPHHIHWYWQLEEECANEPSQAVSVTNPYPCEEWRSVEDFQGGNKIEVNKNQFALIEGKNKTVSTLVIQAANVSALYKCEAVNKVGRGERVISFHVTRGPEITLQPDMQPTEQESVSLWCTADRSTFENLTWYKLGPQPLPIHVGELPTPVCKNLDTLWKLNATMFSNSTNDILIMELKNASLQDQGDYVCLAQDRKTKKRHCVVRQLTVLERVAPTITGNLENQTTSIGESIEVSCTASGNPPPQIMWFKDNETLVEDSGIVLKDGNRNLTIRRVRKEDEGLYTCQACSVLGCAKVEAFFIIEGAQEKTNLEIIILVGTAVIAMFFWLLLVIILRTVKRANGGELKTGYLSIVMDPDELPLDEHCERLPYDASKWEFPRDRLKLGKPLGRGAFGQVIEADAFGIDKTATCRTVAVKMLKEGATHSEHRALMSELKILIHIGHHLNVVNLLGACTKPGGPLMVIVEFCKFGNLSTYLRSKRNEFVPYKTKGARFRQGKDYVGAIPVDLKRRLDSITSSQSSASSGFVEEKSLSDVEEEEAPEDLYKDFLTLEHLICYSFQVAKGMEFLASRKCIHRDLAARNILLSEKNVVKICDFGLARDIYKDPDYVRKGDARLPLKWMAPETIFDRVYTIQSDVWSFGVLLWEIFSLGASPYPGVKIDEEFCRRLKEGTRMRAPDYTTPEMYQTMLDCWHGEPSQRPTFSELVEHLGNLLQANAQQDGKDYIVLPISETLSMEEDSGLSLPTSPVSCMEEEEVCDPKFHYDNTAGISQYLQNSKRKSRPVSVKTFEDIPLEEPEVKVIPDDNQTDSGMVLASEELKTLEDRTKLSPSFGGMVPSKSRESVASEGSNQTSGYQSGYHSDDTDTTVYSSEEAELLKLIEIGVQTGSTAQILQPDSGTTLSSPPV
# Sequence of Cyclin-dependent kinase 5/CDK5 activator 1 (Q00535 whole entry): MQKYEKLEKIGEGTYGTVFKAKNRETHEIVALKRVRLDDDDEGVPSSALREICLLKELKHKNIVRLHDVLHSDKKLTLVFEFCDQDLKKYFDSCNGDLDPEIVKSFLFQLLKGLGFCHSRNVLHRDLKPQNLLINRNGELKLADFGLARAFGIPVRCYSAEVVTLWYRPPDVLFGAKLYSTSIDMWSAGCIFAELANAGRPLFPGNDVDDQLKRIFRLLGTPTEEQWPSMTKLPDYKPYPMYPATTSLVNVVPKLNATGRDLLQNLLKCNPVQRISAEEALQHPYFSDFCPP
# Sequence of Cyclin-dependent kinase 5/CDK5 activator 1 (Q15078 whole entry, further chain): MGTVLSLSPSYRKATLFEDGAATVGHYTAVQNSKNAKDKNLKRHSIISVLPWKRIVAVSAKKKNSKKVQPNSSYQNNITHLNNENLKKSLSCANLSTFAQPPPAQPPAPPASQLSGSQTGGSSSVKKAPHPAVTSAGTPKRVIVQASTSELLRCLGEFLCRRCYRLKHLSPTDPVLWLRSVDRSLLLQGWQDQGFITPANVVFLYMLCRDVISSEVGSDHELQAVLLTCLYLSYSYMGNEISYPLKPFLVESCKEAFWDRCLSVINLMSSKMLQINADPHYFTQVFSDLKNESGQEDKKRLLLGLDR
# Sequence of Melanin-concentrating hormone receptor 1 (Q99705 whole entry): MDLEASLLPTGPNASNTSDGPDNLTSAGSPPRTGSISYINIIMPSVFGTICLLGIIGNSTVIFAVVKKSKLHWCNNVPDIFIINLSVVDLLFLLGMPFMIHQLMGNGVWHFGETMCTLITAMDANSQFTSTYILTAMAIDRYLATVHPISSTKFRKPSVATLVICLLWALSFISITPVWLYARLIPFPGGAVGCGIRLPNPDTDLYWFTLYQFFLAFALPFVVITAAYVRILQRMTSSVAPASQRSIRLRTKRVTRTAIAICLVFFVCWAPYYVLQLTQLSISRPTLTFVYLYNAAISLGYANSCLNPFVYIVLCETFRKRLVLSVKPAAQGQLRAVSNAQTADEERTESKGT
# Sequence of Aurora kinase B (Q96GD4 whole entry): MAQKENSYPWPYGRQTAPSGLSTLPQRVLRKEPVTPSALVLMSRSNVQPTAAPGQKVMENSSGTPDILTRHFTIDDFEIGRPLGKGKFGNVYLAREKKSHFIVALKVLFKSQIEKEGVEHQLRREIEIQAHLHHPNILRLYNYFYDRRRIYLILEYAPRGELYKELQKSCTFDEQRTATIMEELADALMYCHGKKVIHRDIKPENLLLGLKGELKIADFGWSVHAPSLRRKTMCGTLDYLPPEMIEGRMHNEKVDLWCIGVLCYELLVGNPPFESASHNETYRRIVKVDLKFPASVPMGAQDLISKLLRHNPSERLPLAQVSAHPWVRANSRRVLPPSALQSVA
# Sequence of Glycogen synthase kinase-3 beta (P49841 whole entry): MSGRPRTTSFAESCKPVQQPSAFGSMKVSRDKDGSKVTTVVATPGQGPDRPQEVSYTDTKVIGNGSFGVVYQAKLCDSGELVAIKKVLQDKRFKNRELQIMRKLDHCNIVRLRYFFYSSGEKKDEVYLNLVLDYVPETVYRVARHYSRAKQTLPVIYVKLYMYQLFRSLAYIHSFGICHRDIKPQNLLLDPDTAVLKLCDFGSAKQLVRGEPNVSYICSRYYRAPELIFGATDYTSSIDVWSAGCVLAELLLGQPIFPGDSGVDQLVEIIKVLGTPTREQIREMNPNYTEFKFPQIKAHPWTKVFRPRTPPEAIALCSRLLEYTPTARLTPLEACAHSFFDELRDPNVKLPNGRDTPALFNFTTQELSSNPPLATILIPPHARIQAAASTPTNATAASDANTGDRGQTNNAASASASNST
smiles,measurement,setting,value
O=C1c2cccc3c(O)ccc(c23)C(=O)N1Cc1ccccc1,EC50,[1],85.7 µM (active)
same,EC50,Insulin-degrading enzyme [2],> 54.7 µM (inactive)
same,EC50,[3],183 nM (inconclusive)
same,IC50,HEK293 [4],> 89.2 µM (inactive)
same,EC50,[5],2.62 µM (active)
same,EC50,Insulin-degrading enzyme [6],> 54.7 µM (inactive)
same,EC50,[7],82 nM (active)
same,EC50,HEK293 [8],> 54.7 µM (inactive)
O=C1NC(=S)NC(=O)C1=Cc1ccc(-c2ccc(C(=O)O)c(O)c2)o1,Ki,Aurora kinase A,126 nM (active)
same,Ki,[9],> 5.01 µM (inactive)
same,Ki,Aurora kinase B,39.8 nM (active)
O=C(Cc1cccc2ccccc12)Nc1cn(C2CCC2)cn1,AC50,[10],137 nM (active)
same,AC50,[11],8.41 µM (active)
COc1cc2c(cc1OC)C(c1cccs1)N(C(S)=NC(C)C)CC2 (configuration not stated),EC50,[12],17.5 µM (active)
COc1ccc(Oc2c(Cl)cnn(C3=Nc4cc(Cl)ccc4Oc4ncccc43)c2=O)cc1,IC50,[13],8.51 µM (active)
Cn1cc(Nc2ncc(Br)c(Nc3cccc(C(N)=O)c3)n2)cn1,Ki,[14],6.31 µM (active)
same,Ki,[15],3.16 µM (active)
